Source: patent publication US20100317689A1, “Prodrugs of proton pump inhibitors including the 1h-imidazo[4,5-b] pyridine moiety” (priority 2006, published 2010)

What was measured:
[1] = Stability in rat plasma at 37° C., hydrolysis to tenatoprazole; format: in vitro ADME
Protocol: (§1) Exemplary test compounds (prodrugs) of the invention can be incubated in plasma at 37° C. to test their stability and hydrolysis to give the corresponding drug TENATOPRAZOLE. The concentration of the compounds and also of the corresponding proton pump inhibitor TENATOPRAZOLE can be determined by a gradient HPLC-UV method. Although the half-lives of test compounds in plasma is expected to vary depending on their specific structure, nevertheless it is expected that in plasma the compounds of the invention are converted into the corresponding proton pump inhibitor TENATOPRAZOLE at a rate faster than the hydrolysis rate of the compound at neutral or near neutral pH. […] Therefore the compounds of the invention and especially the preferred compounds which have the chemical structure shown in Formulas 4 and 5 are good candidates to be used as prodrugs in intravenous injection and are expected to release the active proton pump inhibitor in vivo.

[2] = Stability at physiological pH 7.4 without plasma or blood; format: physicochemical
Protocol: as §1

[3] = tested on: histamine and carbachol-stimulated gastric acid secretion; test: Inhibition of gastric acid secretion of the conscious male rat, oral administration; format: in vivo; conditions: 40 μmole/kg, pylorus ligated 3 hours after administration, gastric juice collected two hours later
Protocol: Male rats (the Sprague-Dawley strain) are used in this assay. Salts of known benzimidazole type proton pump inhibitors, such as OMEPRAZOLE sodium salt, LANSOPRAZOLE sodium salt or TENATOPRAZOLE sodium salt (20 mg) is suspended in 10 ml of 0.1 N NaHCO3. 70 mg of each of the sodium salts of the compounds of the present invention are dissolved in 6 ml of 50% DMSO-50% 50 mM sodium phosphate buffer, pH 7.4. The doses administered to the rats are as follows (μmole per kg body weight of the rat): TENATOPRAZOLE (40 μmole/kg), a mixture of sodium 2-(4-(5-methoxy-2-((4-methoxy-3,5-dimethylpyridin-2-yl)methylsulfinyl)-1H-imidazo[4,5-b]pyridin-1-ylsulfonyl)phenoxy)acetate (Compound 1) and sodium 2-(4-(5-methoxy-2-((4-methoxy-3,5-dimethylpyridin-2-yl)methylsulfinyl)-3H-imidazo[4,5-b]pyridin-3-ylsulfonyl)phenoxy)acetate (1:1 of the isomeric mixture) 20 μmole/kg, and 40 μmole/kg. These drug solutions are orally administered. 3 hours after administration the abdomen of the rat is incised and the pylorus is ligated under light ether anethesia. […] The gastric juice is collected and acid output is quantified by titration using 0.1 N NaOH solution. […] Acid output is quantified by same method as described above, showing maximum histamine and carbachol-stimulated gastric acid secretion. Percentage inhibition is calculated from the fractional responses elicited by the test compound and a control experiment.

[4] = Plasma concentration of tenatoprazole after oral dosing in rats; format: in vivo, rat
[5] = Stability in human plasma; format: in vitro ADME
Protocol: as §1

Row | Compound | half-life in rat plasma [1] | half-life in physiological pH 7.4 without the plasma or blood [2] | inhibition of gastric acid secretion [3] | plasma concentration of tenatoprazole ([4]; male Sprague-Dawley rats, oral 40 μmole/kg, 5 h postdose) | plasma level and half-life of TENATOPRAZOLE compared with TENATOPRAZOLE itself ([4]; rat, oral) | half-life [5]
1 | sodium 2-(4-(5-methoxy-2-((4-methoxy-3,5-dimethylpyridin-2-yl)methylsulfinyl)-1H-imidazo[4,5-b]pyridin-1-ylsulfonyl)phenoxy)acetate (Compound 1) and sodium 2-(4-(5-methoxy-2-((4-methoxy-3,5-dimethylpyridin-2-yl)methylsulfinyl)-3H-imidazo[4,5-b]pyridin-3-ylsulfonyl)phenoxy)acetate [1:1 mixture of Compound 1 and its positional isomer] | 1.2 min | greater than 24 hr | 83.3±13.7% | 1940 ± 1685 ng/mL | maintains higher plasma level of TENATOPRAZOLE with longer plasma half-life | –
2 | COc1ccc2c(n1)nc([S+]([O-])Cc1ncc(C)c(OC)c1C)n2S(=O)(=O)c1ccc(OCC(=O)[O-])cc1.[Na+] (stereo not drawn) [Compound 1, sodium 2-(4-(5-methoxy-2-((4-methoxy-3,5-dimethylpyridin-2-yl)methylsulfinyl)-1H-imidazo[4,5-b]pyridin-1-ylsulfonyl)phenoxy)acetate] | – | – | – | – | – | 1.35 min
